In US9394297B2, “Amides as pim inhibitors” (AMGEN INC., priority 2012, dated 2016):
Like-named read-outs stand apart in the source and are kept apart here.

Columns and labels:
[1] = system: KMS-12-BM myeloma cell line; assay: Pim KMS-12 cell assay (phospho-BAD S112 / total BAD, MSD)
Pim-1 = Pim-1 (Homo sapiens (Human), UniProt P11309); assay: Pim-Mn enzyme assay (HTRF, 384-well), Pim-1; format: biochemical; settings: read-out: Pim-1-Mn IC50 IP
Pim-2 = Pim-2 (Homo sapiens (Human), UniProt Q9P1W9); assay: Pim-Mn enzyme assay (HTRF, 384-well), Pim-2; format: biochemical; settings: Pim-2 enzyme 0.5 pM, ATP 1.5 μM, BAD (S112) 0.5 μM, HTRF, 22-point curve; read-out: Pim-2-Mn IC50 IP
[2] = Homo sapiens, KMS-12-BM, read-out: KMS-12-BM IC50 IP, KMS-12-BM cells, phospho-BAD (S112) vs total BAD, 1 hour 50 min with compound
[3] = Pim-1 enzyme 5 pM, ATP 1.5 μM, BAD (S112) 0.5 μM, HTRF, 22-point curve
[4] = Homo sapiens, KMS-12-BM, read-out: KMS-12-BM IC50 IP

Chain of Pim-1 (P11309 whole entry): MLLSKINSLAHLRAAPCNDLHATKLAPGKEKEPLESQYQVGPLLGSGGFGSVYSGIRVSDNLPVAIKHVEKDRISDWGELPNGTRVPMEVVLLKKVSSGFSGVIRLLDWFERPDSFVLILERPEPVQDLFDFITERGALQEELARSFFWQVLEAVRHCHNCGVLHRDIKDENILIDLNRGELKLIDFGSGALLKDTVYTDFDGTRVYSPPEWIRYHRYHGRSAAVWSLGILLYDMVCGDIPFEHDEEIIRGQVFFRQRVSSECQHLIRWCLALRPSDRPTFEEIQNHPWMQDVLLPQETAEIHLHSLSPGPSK
Chain of Pim-2 (Q9P1W9 whole entry): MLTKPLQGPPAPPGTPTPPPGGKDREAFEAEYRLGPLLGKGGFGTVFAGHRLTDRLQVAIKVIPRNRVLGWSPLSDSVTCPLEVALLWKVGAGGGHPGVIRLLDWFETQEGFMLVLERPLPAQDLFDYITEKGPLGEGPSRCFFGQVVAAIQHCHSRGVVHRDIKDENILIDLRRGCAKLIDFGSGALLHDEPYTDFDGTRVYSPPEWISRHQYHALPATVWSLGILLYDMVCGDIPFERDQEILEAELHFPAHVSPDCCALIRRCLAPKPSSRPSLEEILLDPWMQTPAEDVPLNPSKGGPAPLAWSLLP

SMILES | IC50 [1, 2] [nM] | IC50 (Pim-1; [3]) [nM] | IC50 (Pim-2) [nM] | IC50 [1, 4] [nM] | IC50 (Pim-1) [nM] | IC50 ([1]; read-out: KMS-12-BM IC50 IP, KMS-12-BM cells, phospho-BAD (S112) vs total BAD, 1 hour 50 min with compound) [nM]
Cc1nc2cccc(-c3cc4c([nH]3)CCNC4=O)c2nc1N[C@@H]1CCCNC1 [Example 75, 2-(2-methyl-3-((3R)-3-piperidinylamino)-5-quinoxalinyl)-1,5,6,7-tetrahydro-4H-pyrrolo[3,2-c]pyridin-4-one] | 892 | 0.6 | 1.2 |  |  | 
CC(C)(C)Nc1cnc2cccc(-c3cc4n(c3)CCNC4=O)c2n1 [Example 173, 7-(3-(tert-butylamino)quinoxalin-5-yl)-3,4-dihydropyrrolo[1,2-a]pyrazin-1(2H)-one] | 181 | 1.3 | 1.4 |  |  | 
COc1nc2cccc(-c3cc4c([nH]3)CCNC4=O)c2nc1NC(C)(C)C [Example 276, 2-(3-(tert-butylamino)-2-methoxy-5-quinoxalinyl)-1,5,6,7-tetrahydro-4H-pyrrolo[3,2-c]pyridin-4-one] | 1220 | 1.8 | 5 |  |  | 
Cc1nc2cccc(-c3cc4c([nH]3)CCNC4=O)c2nc1N(C)C(C)(C)C [Example 222, 2-(3-(tert-butyl(methyl)amino)-2-methylquinoxalin-5-yl)-6,7-dihydro-1H-pyrrolo[3,2-c]pyridin-4(5H)-one] |  | 3.5 | 2.1 | 397 |  | 
Cc1nc2cccc(-c3cc4c([nH]3)CCNC4=O)c2nc1NC1CCCC(O)C1 (racemic) [Example 204, 2-(3-((3-hydroxycyclohexyl)amino)-2-methylquinoxalin-5-yl)-6,7-dihydro-1H-pyrrolo[3,2-c]pyridin-4(5H)-one] | 445 | 2.6 | 3.5 |  |  | 
Cc1nc2cccc(-c3cc4c([nH]3)CCNC4=O)c2nc1NC1CCOC1 (racemic) [Example 71, 2-(2-methyl-3-((±)-tetrahydro-3-furanylamino)-5-quinoxalinyl)-1,5,6,7-tetrahydro-4H-pyrrolo[3,2-c]pyridin-4-one] | 474 | 6.4 | 6.1 |  |  | 
Cc1nc2cccc(-c3cc4c([nH]3)CCNC4=O)c2nc1SC(C)(C)C [Example 221, 2-(3-(tert-butylthio)-2-methylquinoxalin-5-yl)-6,7-dihydro-1H-pyrrolo[3,2-c]pyridin-4(5H)-one] | 750 | 3.1 | 4.3 |  |  | 
Cc1nc2cccc(-c3cc4c([nH]3)C3(CC3)CNC4=O)c2nc1NC1CC1 [Example 77, 2′-(3-(cyclopropylamino)-2-methyl-5-quinoxalinyl)-5′,6′-dihydrospiro[cyclopropane-1,7′-pyrrolo[3,2-c]pyridin]-4′(1′H)-one] |  | 1.6 | 3.8 | 494 |  | 
CC1(C)CN(c2cnc3cccc(-c4cc5c([nH]4)CCNC5=O)c3n2)CCN1 [Example 214, 2-(3-(3,3-dimethylpiperazin-1-yl)quinoxalin-5-yl)-6,7-dihydro-1H-pyrrolo[3,2-c]pyridin-4(5H)-one] | 9870 | 4.7 | 58 |  |  | 
Cc1nc2cccc(-c3cc4c([nH]3)CCNC4=O)c2nc1N [Example 218, 2-(3-amino-2-methylquinoxalin-5-yl)-6,7-dihydro-1H-pyrrolo[3,2-c]pyridin-4(5H)-one] | 1090 | 36 | 17.4 |  |  | 
Cc1nc2cccc(-c3cc4n(c3)CCNC4=O)c2nc1NC(C)(C)C [Example 174, 7-(3-(tert-butylamino)-2-methylquinoxalin-5-yl)-3,4-dihydropyrrolo[1,2-a]pyrazin-1(2H)-one] | 336 | 5.9 | 3.5 |  |  | 
O=C1NCCc2[nH]c(-c3cccc4ccc(NC5CC5)nc34)cc21 [Example 99, 2-(2-(cyclopropylamino)quinolin-8-yl)-6,7-dihydro-1H-pyrrolo[3,2-c]pyridin-4(5H)-one] | 723 | 1.1 | 7 |  |  | 
CC(C)(C)Nc1cnc2cccc(-c3cc4c([nH]3)CCNC4=O)c2n1 [Example 210, 2-(3-(tert-butylamino)quinoxalin-5-yl)-6,7-dihydro-1H-pyrrolo[3,2-c]pyridin-4(5H)-one] | 60.1 | 0.2 | 0.3 |  |  | 
Cc1nc2cccc(-c3cc4c([nH]3)CCNC4=O)c2nc1NC1(C)CCCCC1 [Example 155, 2-(2-methyl-3-((1-methylcyclohexyl)amino)quinoxalin-5-yl)-6,7-dihydro-1H-pyrrolo[3,2-c]pyridin-4(5H)-one] | 292 |  | 1.5 |  | 0.7 | 
COCC(C)(C)Nc1nc2c(-c3cc4c([nH]3)CCNC4=O)cccc2nc1C [Example 66, 2-(3-((2-methoxy-1,1-dimethylethyl)amino)-2-methyl-5-quinoxalinyl)-1,5,6,7-tetrahydro-4H-pyrrolo[3,2-c]pyridin-4-one] |  | 2.7 | 0.7 |  |  | 215
CC1(Nc2cnc3cccc(-c4cc5c([nH]4)CCNC5=O)c3n2)CC1 [Example 211, 2-(3-((1-methylcyclopropyl)amino)quinoxalin-5-yl)-6,7-dihydro-1H-pyrrolo[3,2-c]pyridin-4(5H)-one] | 49.7 | 0.2 | 0.3 |  |  | 
Cc1nc2cccc(-c3cc4c([nH]3)CCNC4=O)c2nc1NCC(C)(C)O [Example 148, 2-(3-((2-hydroxy-2-methylpropyl)amino)-2-methylquinoxalin-5-yl)-6,7-dihydro-1H-pyrrolo[3,2-c]pyridin-4(5H)-one] | 420 | 8 | 8.7 |  |  | 
Cc1nc2cccc(-c3cc4c([nH]3)CCNC4=O)c2nc1NCC(C)(C)N [Example 70, 2-(3-((2-amino-2-methylpropyl)amino)-2-methyl-5-quinoxalinyl)-1,5,6,7-tetrahydro-4H-pyrrolo[3,2-c]pyridin-4-one] | 2910 | 4.3 | 6.3 |  |  | 
Cc1nc2cccc(-c3cc4c(=O)[nH]cnc4[nH]3)c2nc1NC(C)(C)CO [Example 263, 6-(3-((1-hydroxy-2-methylpropan-2-yl)amino)-2-methylquinoxalin-5-yl)-3H-pyrrolo[2,3-d]pyrimidin-4(7H)-one] | 907 | 5.1 | 5.8 |  |  | 
Cc1nc2cccc(-c3cc4c([nH]3)CCNC4=O)c2nc1N(C)C(C)C [Example 68, 2-(2-methyl-3-(methyl(1-methylethyl)amino)-5-quinoxalinyl)-1,5,6,7-tetrahydro-4H-pyrrolo[3,2-c]pyridin-4-one] | 445 | 4.5 | 6.1 |  |  | 
Cc1nc2cccc(-c3cc4c([nH]3)CCNC4=O)c2nc1NCC1(C)COC1 [Example 281, 2-(2-methyl-3-(((3-methyl-3-oxetanyl)methyl)amino)-5-quinoxalinyl)-1,5,6,7-tetrahydro-4H-pyrrolo[3,2-c]pyridin-4-one] | 533 | 6.7 | 2.8 |  |  | 
Cc1nc2cccc(-c3cc4c([nH]3)CCNC4=O)c2nc1N[C@@H](C)C1CC1 [Example 270, 2-(3-(((1S)-1-cyclopropylethyl)amino)-2-methyl-5-quinoxalinyl)-1,5,6,7-tetrahydro-4H-pyrrolo[3,2-c]pyridin-4-one] | 215 | 2.2 | 1.4 |  |  | 
Cc1nc2cccc(-c3cc4c(=O)[nH]cnc4[nH]3)c2nc1NC(C)(C)C [Example 261, 6-(3-(tert-butylamino)-2-methylquinoxalin-5-yl)-3H-pyrrolo[2,3-d]pyrimidin-4(7H)-one] | 252 | 1.22 | 1.29 |  |  | 
CNc1nc2c(-c3cc4c([nH]3)CCNC4=O)cccc2nc1C [Example 219, 2-(2-methyl-3-(methylamino)quinoxalin-5-yl)-6,7-dihydro-1H-pyrrolo[3,2-c]pyridin-4(5H)-one] | 346 | 7.8 | 4.1 |  |  | 
Cc1nc2cccc(-c3cc4c([nH]3)CCNC4=O)c2nc1NC1CC(O)C1 (stereo not drawn) [Example 72, 2-(3-((3-hydroxycyclobutyl)amino)-2-methyl-5-quinoxalinyl)-1,5,6,7-tetrahydro-4H-pyrrolo[3,2-c]pyridin-4-one] | 713 | 3.1 | 1.9 |  |  | 
Cc1nc2cccc(-c3cc4n(c3)CCNC4=O)c2nc1NC1(C)CC1 [Example 100, 7-(2-methyl-3-((1-methylcyclopropyl)amino)quinoxalin-5-yl)-3,4-dihydropyrrolo[1,2-a]pyrazin-1(2H)-one 2,2,2-trifluoroacetate] | 144 | 1.34 | 0.961 |  |  | 
Cc1nc2cccc(-c3cc4c([nH]3)CCNC4=O)c2nc1N[C@H](C)C1CC1 [Example 271, 2-(3-(((1R)-1-cyclopropylethyl)amino)-2-methyl-5-quinoxalinyl)-1,5,6,7-tetrahydro-4H-pyrrolo[3,2-c]pyridin-4-one] | 418 | 1.3 | 2 |  |  | 
CCNc1nc2c(-c3cc4c([nH]3)CCNC4=O)cccc2nc1C [Example 69, 2-(3-(ethylamino)-2-methyl-5-quinoxalinyl)-1,5,6,7-tetrahydro-4H-pyrrolo[3,2-c]pyridin-4-one] |  | 3.4 | 1.7 | 223 |  | 
COCC(C)(C)Nc1nc2c(-c3cc4c([nH]3)CCNC4=O)cccc2nc1C [Example 63, 2-(3-((2-methoxy-1,1-dimethylethyl)amino)-2-methyl-5-quinoxalinyl)-1,5,6,7-tetrahydro-4H-pyrrolo[3,2-c]pyridin-4-one] | 513 | 4.3 | 5.4 |  |  | 
